SMILES strings stand for the structures.

The series can be described thus: relative stability of linezolid crystal forms. The format is physicochemical. The following applies: temperature below about 85° (degrees Centigrade).

For the molecule `CC(=O)NC[C@H]1CN(c2ccc(N3CCOCC3)c(F)c2)C(=O)O1` [Crystal Form II, (S)-N-[[3-[3-fluoro-4-(4-morpholinyl)phenyl]-2-oxo-5-oxazolidinyl]methyl]acetamide], the “stability of the crystal form relative to other solid forms (e.g. Form I)” value is listed as “most stable form below about 85°”.

The values are drawn from patent publication US6559305B1, “Linezolid—crystal form II” (Pharmacia & Upjohn Company, priority 2000, dated 2003).
